Experimental data published in publication PMC6981816, “Characterization of Effectiveness in Concerted Ih Inhibition and IK(Ca) Stimulation by Pterostilbene (Trans-3,5-dimethoxy-4′-hydroxystilbene), a Stilbenoid” (International Journal of Molecular Sciences, 2020).

Target: T1, large-conductance Ca2+-activated K+ (BKCa) channel (IK(Ca)) (Rattus norvegicus, UniProt Q62976)
T1 construct: gene Kcnma1; native channel in GH3 pituitary cells
Experiment: whole-cell patch clamp of IK(Ca), concentration-response; reversed by verruculogen
Type: cell-based

T1 sequence (Q62976 whole entry): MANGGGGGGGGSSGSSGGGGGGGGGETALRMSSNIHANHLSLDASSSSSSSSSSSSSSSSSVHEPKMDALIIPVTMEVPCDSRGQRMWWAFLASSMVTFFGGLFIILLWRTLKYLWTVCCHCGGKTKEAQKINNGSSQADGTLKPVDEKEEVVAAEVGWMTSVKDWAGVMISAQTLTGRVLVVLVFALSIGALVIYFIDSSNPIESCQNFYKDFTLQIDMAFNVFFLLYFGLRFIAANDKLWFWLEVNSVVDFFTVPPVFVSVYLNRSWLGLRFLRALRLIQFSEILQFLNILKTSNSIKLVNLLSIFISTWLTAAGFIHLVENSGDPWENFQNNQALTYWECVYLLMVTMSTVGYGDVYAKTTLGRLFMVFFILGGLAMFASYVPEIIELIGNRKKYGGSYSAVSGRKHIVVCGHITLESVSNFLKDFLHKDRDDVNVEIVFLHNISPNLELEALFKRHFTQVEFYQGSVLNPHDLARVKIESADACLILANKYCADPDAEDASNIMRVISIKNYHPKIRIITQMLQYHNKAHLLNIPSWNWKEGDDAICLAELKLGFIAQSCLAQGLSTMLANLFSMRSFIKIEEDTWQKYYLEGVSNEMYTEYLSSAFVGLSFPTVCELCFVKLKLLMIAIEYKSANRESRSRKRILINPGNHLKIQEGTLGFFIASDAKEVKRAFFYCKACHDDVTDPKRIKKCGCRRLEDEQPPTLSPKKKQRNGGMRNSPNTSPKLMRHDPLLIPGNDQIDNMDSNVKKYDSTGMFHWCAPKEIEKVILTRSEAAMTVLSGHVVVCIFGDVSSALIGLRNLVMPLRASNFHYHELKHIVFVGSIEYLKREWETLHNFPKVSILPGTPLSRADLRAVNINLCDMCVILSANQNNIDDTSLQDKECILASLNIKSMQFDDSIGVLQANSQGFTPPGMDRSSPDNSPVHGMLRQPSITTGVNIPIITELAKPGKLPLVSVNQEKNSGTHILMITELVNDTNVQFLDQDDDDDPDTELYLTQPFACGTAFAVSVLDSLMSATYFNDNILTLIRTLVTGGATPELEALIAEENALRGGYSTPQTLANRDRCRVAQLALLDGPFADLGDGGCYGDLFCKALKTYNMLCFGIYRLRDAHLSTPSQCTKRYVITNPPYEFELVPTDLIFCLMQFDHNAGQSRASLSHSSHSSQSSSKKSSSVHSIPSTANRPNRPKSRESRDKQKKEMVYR

## COc1cc(/C=C/c2ccc(O)cc2)cc(OC)c1 [PTER, trans-3,5-dimethoxy-4′-hydroxystilbene]
  EC50: 2230 nM
